This is an account of results in patent US6444683B2, “17-azolyl steroids useful as androgen synthesis inhibitors” (University of Maryland at Baltimore, priority 1997, dated 2002).

“Also recorded” adds a separate entry of the source. Where two headings read alike, the source gives them in different places.

For data set [1] the following is noted: small group of men with advanced prostatic cancer; cited from earlier work.
Data set [2] addresses T1, human prostate 5α-reductase (Homo sapiens, UniProt P31213).
T1 construct: The enzymatic reactions were initiated by addition of human BPH microsomes; from tissue; host or cells: human benign prostatic hyperplasia (BPH) tissue, microsomal fraction
T1 sequence (P31213 1-254): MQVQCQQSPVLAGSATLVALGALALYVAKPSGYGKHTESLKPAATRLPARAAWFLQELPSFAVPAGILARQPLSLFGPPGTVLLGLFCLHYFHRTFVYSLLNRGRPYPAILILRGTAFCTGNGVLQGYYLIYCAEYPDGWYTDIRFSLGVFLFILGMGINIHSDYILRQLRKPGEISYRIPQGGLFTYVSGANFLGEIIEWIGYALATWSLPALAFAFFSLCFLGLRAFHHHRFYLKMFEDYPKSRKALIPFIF
The experiment in a line: Inhibition of human prostate 5α-reductase in BPH microsomes (conversion of [7-3H]-testosterone to DHT). In kind it is biochemical. On the procedure: […] The ethanol was evaporated to dryness under a gentle stream of air. […] The enzymatic reactions were initiated by addition of human BPH microsomes (about 180 μg of microsomal protein in 500 μl of phosphate buffer) in a total volume of 1.0 ml, and the incubations were performed for 10 min under oxygen in a shaking water bath at 37° C. The incubations were terminated by placing the sample tubes on ice and the addition of ether. Also, [^14C]-DHT (3000 dpm) and cold DHT (50 μg) were added to each tube as an internal standard and visualization marker, respectively. The steroids were extracted with ether and separated by TLC (chloroform:ether, 80:20) and visualized by exposure to iodine vapor. The extracts were analyzed for ^3H and ^14C using a liquid scintillation counter. The percentage conversion of [7-^3H]-testosterone to [^3H]-dihydrotestosterone was calculated and used to determine 5α-reductase activity.

The next data set addresses T2, Rat P45017α (Rattus norvegicus, UniProt P11715).
T2 sequence (P11715 1-507): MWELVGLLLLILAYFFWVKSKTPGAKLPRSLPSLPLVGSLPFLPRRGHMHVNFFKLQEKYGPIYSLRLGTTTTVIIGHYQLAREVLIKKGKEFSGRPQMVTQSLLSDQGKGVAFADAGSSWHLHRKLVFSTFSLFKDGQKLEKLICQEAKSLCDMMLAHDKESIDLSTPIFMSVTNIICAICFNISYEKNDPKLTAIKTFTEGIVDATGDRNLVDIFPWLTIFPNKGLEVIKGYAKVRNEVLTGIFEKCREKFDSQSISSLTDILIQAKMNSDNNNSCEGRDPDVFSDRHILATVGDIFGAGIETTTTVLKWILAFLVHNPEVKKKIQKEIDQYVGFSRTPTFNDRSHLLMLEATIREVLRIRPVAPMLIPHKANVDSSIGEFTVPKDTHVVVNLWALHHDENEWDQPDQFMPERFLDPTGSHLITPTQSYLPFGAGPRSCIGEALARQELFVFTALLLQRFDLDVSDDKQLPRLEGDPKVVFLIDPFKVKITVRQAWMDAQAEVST
Briefly: Inhibition of rat testicular microsomal P45017α (lyase activity). In kind it is biochemical. On the procedure: (§1) The microsomes were stored at −70° C. until assayed. Just before use, the thawed microsomes were diluted with 0.1 M phosphate buffer (pH 7.4) to appropriate concentrations.
(§2) This assay measures only the lyase activity of the P45017α enzyme.
(§3) IC50 values for inhibitors were calculated from the linear regression line in the plot of logit of lyase activity versus log of inhibitor concentration. […] Each inhibitor was examined at three concentrations.

Data set [3] deals with LNCaP human prostatic cancer cell. Briefly: Androgen-stimulated growth of LNCaP human prostatic cancer cells in vitro. The settings on record: for Toxicity to LNCaP cells: concentration range 0.5-5.0 μM; for Antiandrogenic effects: inferred from inhibition of androgen-stimulated LNCaP growth.
In the next data set the target is T3, Human P45017α (Homo sapiens, UniProt P05093).
T3 construct: Human testicular microsomes were prepared from human testes; from tissue; host or cells: human testes (untreated prostatic cancer patients undergoing orchidectomy), microsomal fraction
T3 sequence (P05093 1-508): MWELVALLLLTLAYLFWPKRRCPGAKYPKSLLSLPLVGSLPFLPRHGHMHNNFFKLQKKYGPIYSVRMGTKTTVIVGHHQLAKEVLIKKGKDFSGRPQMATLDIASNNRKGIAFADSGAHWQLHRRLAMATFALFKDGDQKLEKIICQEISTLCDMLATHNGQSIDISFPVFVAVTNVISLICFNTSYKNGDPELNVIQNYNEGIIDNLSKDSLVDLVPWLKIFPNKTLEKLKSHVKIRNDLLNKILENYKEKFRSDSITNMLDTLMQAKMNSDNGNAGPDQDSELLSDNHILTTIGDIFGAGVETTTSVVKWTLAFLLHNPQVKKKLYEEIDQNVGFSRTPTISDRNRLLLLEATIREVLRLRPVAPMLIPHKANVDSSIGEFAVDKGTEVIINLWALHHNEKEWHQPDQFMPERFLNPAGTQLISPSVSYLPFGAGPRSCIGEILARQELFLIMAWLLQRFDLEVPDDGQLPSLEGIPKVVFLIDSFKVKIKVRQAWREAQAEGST
Briefly: Inhibition of human testicular microsomal P45017α (lyase activity, release of C3H3COOH from [21-3H3]-17α-hydroxypregnenolone). The data set is classed as biochemical. The settings on record: for Ki: Human P45017α Ki; for Inhibition of human P45017α, in words: human testicular microsomes; for inhibition at 0.15 µM: read-out: % Inhibition of human P45017α. On the procedure: as §1, §2, §3

Data set [4] is described as follows: Stability at room temperature (TLC evidence). The data set is classed as physicochemical. Here is the method: The method followed that described for Synthesis Example 14, but using 3β-acetoxy-17-(1H-tetrazol-1-yl)-16-formylandrosta-5,16-diene (Compound 23) (140 mg, 0.3415 mmol). Purification of the crude product by FCC (silica gel, pet. ether/EtOAc (3:1)) gave Compound 26 (45 mg, 34.5%); ^1H NMR (300 MHz, CDCl3): δ 1.08 (3H, s, 18-Me), 1.20 (3H, s, 19-Me), 2.04 (3H, s, 3β-OAc), 4.62 (1H, m, 3α-H), 5.42 (1H, d, J=4.6Hz, 6-H), 6.00 (1H, s, 16-H) and 8.93 (1H, s, 5′-H). […] (TLC evidence) and was used for the subsequent reaction without further characterization.

Data set [5] relates to LNCaP human prostatic cancer cell. The settings on record: cited from earlier work.
The subject of another data set is serum DHT levels. The settings on record: BPH patients; cited from earlier work.
The mark [6] stands for this setting: Homo sapiens, LNCaP, read-out: Inhibition of DHT-induced growth of LNCaP cells.
The mark [7] stands for this setting: Homo sapiens, LNCaP, read-out: Inhibition of testosterone-stimulated growth of LNCaP cells.

Broadly, the IC50 is the point on the concentration scale where inhibition reaches its midpoint. The term inhibition denotes the percentage by which the read-out fell short of the control. Usually Ki stands for the equilibrium dissociation constant of an inhibitor or competing ligand from its target. High values mean a looser hold on the target, low ones a stronger hold on the target.

Take `C[C@]12CCC(=O)C(O)=C1CC[C@@H]1[C@@H]2CC[C@]2(C)C(=O)CC[C@@H]12` [Compound 4-OHA, 4-hydroxyandrostene-3,17-dione]: the “Patients with subjective responses” value in data set [1] was 80%.

As to `C[C@]12CC[C@H](O)CC1=CC[C@@H]1[C@@H]2CC[C@]2(C)C(n3ccnc3)=CC[C@@H]12` [Compound 11, 3β-hydroxy-17-(1H-imidazol-1-yl)androsta-5,16-diene], in data set [2], the IC50 is ~400000 nM. Besides, in data set [2] (human prostate enzyme), the “Inhibition of 5α-reductase, in words” value is “poor inhibitors; also recorded: neither compound inhibited 5α-reductase”. The same molecule yielded an IC50 against Rat P45017α of 9 ± 2 nM. Further, the “Increase of potency towards the rat enzyme compared with human P45017α” value at Rat P45017α (from IC50 values, rat vs human testicular microsomes) was “unchanged”. Further, the “Inhibition of rat testicular P45017α, in words” value on Rat P45017α (rat testicular microsomes) is “powerful inhibitors”. The inhibition at 2.5 µM in data set [3] (setting [6]) turned out to be 100%. The inhibition at 1 µM in data set [3] (setting [7]) stood at 100%. In data set [3], the “Toxicity to LNCaP cells” value was “nor was toxic to the cells” and the Antiandrogenic effects entry is reported as “strong antiandrogenic effects”. For the same molecule, at Human P45017α, the IC50 came out at 8 nM; the affinity corresponds to a Ki of 1.2 nM; the “Inhibition of human P45017α, in words” value was “potent inhibitors; also recorded: powerful inhibitors”; the inhibition at 0.15 µM amounted to 97%. Besides, on Human P45017α (Lineweaver-Burk analysis, progress curves), the “Nature of inhibition kinetics of P45017α” value is on record as “slow-binding inhibitor”.

In the case of `C[C@]12CC[C@H](O)CC1=CC[C@@H]1[C@@H]2CC[C@]2(C)C(n3ccnn3)=CC[C@@H]12` [Compound 20, 3β-hydroxy-17-(1H-1,2,3-triazol-1-yl)androsta-5,16-diene], in data set [2] (human BPH microsomes, mean ± SDM of at least two experiments, read-out: 5α-Reductase IC50), the IC50 was ~10000 nM. This molecule returned an IC50 on Rat P45017α of 10 ± 0.4 nM. For the same molecule, the inhibition at 5 µM in data set [3] (setting [6]) worked out at 100%. In addition, the inhibition at 2.5 µM in data set [3] (setting [7]) is 100%. For the same molecule, in data set [3], the “Toxicity to LNCaP cells” value was “nor was toxic to the cells” and the Antiandrogenic effects entry is reported as “strong antiandrogenic effects”. In addition, at Human P45017α, the IC50 came out at 13 ± 1 nM; the Ki amounted to 1.4 nM; the “Inhibition of human P45017α, in words” value is reported as “potent inhibitors; also recorded: powerful inhibitors”. For the same molecule, the inhibition at 0.15 µM at Human P45017α (inhibitor 150 nM, substrate 17α-hydroxypregnenolone 10 μM, mean of two determinations) is 94%.

For the molecule `CC(=O)O[C@H]1CC[C@@]2(C)C(=CC[C@@H]3[C@@H]2CC[C@]2(C)C(n4cnnn4)=CC[C@@H]32)C1` [Compound 26, 3β-acetoxy-17-(1H-tetrazol-1-yl)androsta-5,16-diene], the “Stability at room temp.” value in data set [4] is given as “not particularly stable at room temp”.

Take `C[C@]12CCC(=O)C[C@@H]1CC[C@@H]1[C@@H]2CC[C@]2(C)[C@@H](O)CC[C@@H]12` [DHT, dihydrotestosterone]: the “Stimulation of proliferation of LNCaP cells compared to control” value in data set [5] (30 pM DHT) was 5 fold.

Take `CC(C)(C)NC(=O)[C@H]1CC[C@H]2[C@@H]3CC[C@H]4NC(=O)C=C[C@]4(C)[C@H]3CC[C@]12C` [Finasteride, reference compound]: the IC50 in data set [2] is 33 ± 2 nM. Besides, the “Reduction of serum DHT levels” value in the data set with serum DHT levels is listed as 65-80%.

Take `C[C@]12CC[C@H]3[C@@H](CCC4=CC(=O)CC[C@@]43C)[C@@H]1CC[C@@H]2O` [testosterone]: in data set [5] (0.1 nM testosterone), the “Increase of growth of LNCaP cells compared to vehicle-treated cells” value is recorded as 6 fold.
